Data set [1] can be described thus: Plasma and brain concentrations of sildenafil and its N-oxide after i.v. or p.o. administration to mice (LC-MS/MS). It is filed as in vivo, male NMRI mice. The following applies: sildenafil administered i.v. or p.o. The method, then: Sildenafil and its N-oxide were analyzed in mouse plasma and brain samples using a generic bioanalytical method comprising protein precipitation and HPLC with MS/MS detection.
Sample preparation: Proteins in 100 μl plasma were precipitated with acetonitrile, and 5 μl samples of the obtained solution were analyzed. Complete brains were homogenized and centrifuged, and 10 μl samples of the supernatant were analyzed.
Liquid Chromatography-Tandem Mass Spectrometry (LC-MS/MS) was performed using a Sciex API4000 LC-MS/MS. Quantification of the samples was done using extracted calibration samples, treated the same as the study samples in the range of 1-5000 ng/ml and 5.0-5000 ng/brain for plasma and brains samples, respectively. Compound peak area was used for quantification. The calibration curves were fitted to the model y=A+Bx+Cx^2 (y is the peak area of the analyte, x is the nominal calibration level in ng/ml (plasma) or ng/g (brain), A is the intercept, B is the slope and C is the description of the curvature). 1/x^2 weighing was used. LC-MS/MS system performance was monitored using a reference solution injected at standard intervals. The method use for testing was not validated in detail, therefore the reported concentrations were good estimations. The Lower Limit Of Quantification (LLOQ) was established at 1.00 ng/ml and 5.00 ng/brain, for plasma and brain samples, respectively. […]

Data set [2] is described as follows: Plasma pharmacokinetics of sildenafil and its N-oxide. The following applies: male, NMRI, mouse, mice, plasma; for AUC: Tend = 7 hrs, read-out: AUC0→end; for AUC(0-inf): Tend = ∞. The format is in vivo. The method, then:
Liquid Chromatography-Tandem Mass Spectrometry (LC-MS/MS) was performed using a Sciex API4000 LC-MS/MS. […] Compound peak area was used for quantification. The calibration curves were fitted to the model y=A+Bx+Cx^2 (y is the peak area of the analyte, x is the nominal calibration level in ng/ml (plasma) or ng/g (brain), A is the intercept, B is the slope and C is the description of the curvature). 1/x^2 weighing was used. LC-MS/MS system performance was monitored using a reference solution injected at standard intervals. […] The Lower Limit Of Quantification (LLOQ) was established at 1.00 ng/ml and 5.00 ng/brain, for plasma and brain samples, respectively. Reversed phase HPLC was performed using gradient elution by a Hypersil BDS C18 100×4.6 mm 3 μm analytical column, with a temperature of 45° C. and a flow of 1.00 ml/min: […]

The target of a further data set is PDE-V (Homo sapiens, UniProt O76074). The following applies: cited from earlier work.
A further data set addresses CYP3A4 (Homo sapiens, UniProt P08684). The settings on record: cited from earlier work.
The target of a further data set is CYP2C9 (Homo sapiens, UniProt P11712). The settings on record: cited from earlier work.
Another data set deals with PDE-I. The experiment in a line: In vitro inhibition of phosphodiesterases (CEREP): PDE-I. The settings on record: bovine brain.
For a further data set, the system named is PDE-IV. The experiment in a line: In vitro inhibition of phosphodiesterases (CEREP): PDE-IV. The following applies: human U-937 monocytes.
The conditions of data set [3]: in vivo; cited from earlier work.

Where two headings read alike, the source gives them in different places.

The text below walks through data of patent US20090005395A1 (Solvay Pharmaceuticals, B.V., priority 2007, published 2009).

One may read the Tmax as the time from dosing to the highest level. By half-life is commonly meant how long it takes for the measured level to halve. Read a low half-life as rapid decline. A word on the AUC(0-inf): it is the area under the concentration-time curve extrapolated to infinity. A low value points to low exposure. For orientation: Cmax means the peak of the concentration-time curve. The Vd is the apparent volume that relates the amount in the body to the concentration in plasma or blood. Higher therefore signals wide distribution into tissue. One may read the clearance as the volume of plasma or blood freed of the substance per unit of time. Read a low clearance as a low capacity for elimination. One may read the bioavailability as dose-corrected exposure relative to a reference, in per cent. A lower bioavailability goes with little systemic uptake.

Sequence of CYP2C9 (P11712 whole entry): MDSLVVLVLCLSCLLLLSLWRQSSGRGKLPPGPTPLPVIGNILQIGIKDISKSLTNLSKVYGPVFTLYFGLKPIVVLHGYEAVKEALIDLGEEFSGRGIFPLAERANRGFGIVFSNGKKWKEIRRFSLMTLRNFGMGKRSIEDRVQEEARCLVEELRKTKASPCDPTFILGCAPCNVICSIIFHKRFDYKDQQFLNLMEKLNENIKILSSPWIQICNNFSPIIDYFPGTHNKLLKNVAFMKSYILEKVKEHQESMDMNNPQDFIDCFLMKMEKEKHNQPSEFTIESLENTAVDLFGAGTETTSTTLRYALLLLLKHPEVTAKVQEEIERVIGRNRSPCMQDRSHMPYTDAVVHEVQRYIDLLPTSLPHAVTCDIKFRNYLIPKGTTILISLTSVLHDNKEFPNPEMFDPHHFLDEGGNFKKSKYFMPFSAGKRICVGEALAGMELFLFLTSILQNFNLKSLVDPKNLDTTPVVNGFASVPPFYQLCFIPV
Sequence of CYP3A4 (P08684 whole entry): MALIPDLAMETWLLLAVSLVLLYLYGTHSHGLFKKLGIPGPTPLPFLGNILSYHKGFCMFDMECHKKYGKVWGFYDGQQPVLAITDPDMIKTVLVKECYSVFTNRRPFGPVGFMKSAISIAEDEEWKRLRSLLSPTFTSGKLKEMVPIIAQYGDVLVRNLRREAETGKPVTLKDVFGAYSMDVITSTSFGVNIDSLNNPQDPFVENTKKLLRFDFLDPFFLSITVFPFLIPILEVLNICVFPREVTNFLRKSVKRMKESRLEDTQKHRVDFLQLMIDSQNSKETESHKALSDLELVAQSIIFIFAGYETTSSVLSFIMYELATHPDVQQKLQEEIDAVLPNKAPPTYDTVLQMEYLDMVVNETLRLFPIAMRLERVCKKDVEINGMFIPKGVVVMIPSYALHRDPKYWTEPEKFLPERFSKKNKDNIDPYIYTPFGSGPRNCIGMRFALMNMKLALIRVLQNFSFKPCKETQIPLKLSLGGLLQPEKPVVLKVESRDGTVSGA

As to `CCCc1nn(C)c2c(=O)[nH]c(-c3cc(S(=O)(=O)N4CCN(C)CC4)ccc3OCC)nc12` [Sildenafil, 1-[4-ethoxy-3-(6,7-dihydro-1-methyl-7-oxo-3-propyl-1H-pyrazolo[4,3-d]pyrimidin-5-yl)phenyl-sulfonyl]-4-methylpiperazine, reference compound], the “N-oxide in the brain” value in data set [1] was “no trace can be found at all”. In data set [2] (iv, i.v. 1 mg/kg), the Tmax turned out to be 0 h, the half-life is 1.4 h, the AUC was found to be 232 ng·h/mL and the AUC(0-inf) was 232 ng·h/mL. In data set [2] (iv, i.v. 1 mg/kg), the Vd worked out at 8.9 L/kg and the clearance is 71.8 mL/min/kg. Moreover, the Cmax in data set [2] (iv, i.v. 1 mg/kg, extrapolated to T0 (time zero), read-out: Cmax (C0)) is 538 ng/mL. The bioavailability in data set [2] (po, 10 mg/kg, i.v.) is 28.9%. In data set [2] (po, p.o. 10 mg/kg), the Tmax worked out at 0.2 h, the half-life is 1.1 h, the AUC was 661 ng·h/mL and the AUC(0-inf) stood at 670 ng·h/mL. Moreover, the Cmax in data set [2] (po, p.o. 10 mg/kg, read-out: Cmax) was 533 ng/mL. On PDE-V (in vitro, versus PDE-1), the “more potent on PDE-V than on PDE-1” value is given as > 80 fold. Besides, the “more potent on PDE-V than on PDE-II” value on PDE-V (in vitro, versus PDE-II) is recorded as > 700 fold. In addition, the “more potent on PDE-V than on PDE-IV” value at PDE-V (in vitro, versus PDE-IV) is listed as > 700 fold. For the same compound, the “more potent on PDE-V than on PDE-IX” value on PDE-V (in vitro, versus PDE-IX) is reported as > 700 fold. Besides, the “more potent on PDE-V than on PDE-VI” value at PDE-V (in vitro, versus PDE-VI) is “about 10 fold”. The “more potent on PDE-V than on PDE-VII” value at PDE-V (in vitro, versus PDE-VII) is listed as > 700 fold. In addition, the “more potent on PDE-V than on PDE-VIII” value at PDE-V (in vitro, versus PDE-VIII) was > 700 fold. The “more potent on PDE-V than on PDE-X” value at PDE-V (in vitro, versus PDE-X) is on record as > 700 fold. Moreover, on PDE-V (in vitro, versus PDE-XI), the “more potent on PDE-V than on PDE-XI” value is given as > 700 fold. In addition, the “clearance route by hepatic microsomal iso-enzyme CYP3A4” value on CYP3A4 is on record as “major route”. Besides, the “clearance route by hepatic microsomal iso-enzyme CYP2C9” value on CYP2C9 is reported as “minor route”. In addition, the “pIC50 PDE-I” value with PDE-I turned out to be 5.0. In addition, the “pIC50 PDE-IV” value in the data set on PDE-IV was 4.8.
In the case of `CCCc1nn(C)c2c(=O)[nH]c(-c3cc(S(=O)(=O)N4CCNCC4)ccc3OCC)nc12` [UK 103,320, 1-[[3-(6,7-dihydro-1-methyl-7-oxo-3-propyl-1H-pyrazolo[4,3-d]pyrimidin-5-yl)-4-ethoxy-phenyl]sulfonyl]-piperazine], the “in vitro potency for PDE-V relative to the parent drug” value on PDE-V (of sildenafil) is listed as “approximately 50%”. The “potency relative to sildenafil” value at PDE-V (reported) is listed as “about half”. The “Plasma concentrations of the metabolite relative to those seen for sildenafil” value in data set [3] was “approximately 40%”.
